# Measured values taken from US10617656B2, “Methods of increasing the cytotoxicity of chemotherapeutic agents with multisubstrate inhibitors of histone, protein-Lys, polyamine acetylation, and polyamine metabolism” (Vanderbilt University, priority 2010, dated 2020).
# How the values were obtained:
# H358 lung cancer cells = format: cell-based; conditions: 3 days
# Description: Control cells were left untreated. […] Control cells were left untreated.
# Cells were given fresh inhibitor on the first, second, and third days of treatment and viability was measured on the 4th day (i.e. 3 days post start of treatment). […]
# (A) Structure of Spd-3a. (B) Western analysis of histone H3K9-acetylation and total histone H3, measured in control, untreated H358 lung cancer cells “C” or in H358 cells incubated 12 hours in the presence of 50 μM Spd-2a or Spd-3a. Each lane represents 60 μg cellular protein. (C) [3H]-thymidine incorporation (counts per minute) into DNA of H358 cells during a 6 hour pulse beginning at 42 hours post-start of treatment. Treatments were as follows (bars 1-6 left to right): (1) control: no treatment; (2) CPT alone: 5 nM 18 hours; (3) 3a alone: 50 μM; (4-6) 3a+CPT: CPT (5 nm, 18 hours)+3a at indicated dose. After 18 hours, CPT was removed and medium was replaced with fresh medium containing Spd-3a at the indicated dose. Each bar represents the average of triplicates. (D) 3-day 96-well viability assay of H358 cells grown in the presence of increasing amounts of Spd-2a or Spd-3a, with or without CPT (5 nM 18 hours). […] Each data point represents the average of three wells.
# Date of exp: Jul. […] Date of exp: Sep.
# Cells were plated in 96-well plates at 2000 cells per well and treated with the indicated doses of spd-3a. Cell viability was measured by the MTS assay 3 days later.
# DLD-1 cells or H358 cells were plated in 96-well plates at 2000 cells per well and treated with the indicated doses of (A) spm-3 or (B) spm-2. (C) Cell viability was measured by the MTS assay 3 days later. Similar experiment using GT41 fibroblasts with spm2 or spm 3. Each assay point represents an average of duplicates. […]
# p300 catalytic domain = biological target: T1, p300 catalytic domain (Homo sapiens, UniProt Q09472); assay: 96-well fluorescent HAT assay kit (Active Motif), H3 peptide (5-23); format: biochemical
# T1 construct: the catalytic domain of p300(965-1810); purchased Active Motif, Carlsbad, Calif
# T1 sequence (Q09472 965-1810): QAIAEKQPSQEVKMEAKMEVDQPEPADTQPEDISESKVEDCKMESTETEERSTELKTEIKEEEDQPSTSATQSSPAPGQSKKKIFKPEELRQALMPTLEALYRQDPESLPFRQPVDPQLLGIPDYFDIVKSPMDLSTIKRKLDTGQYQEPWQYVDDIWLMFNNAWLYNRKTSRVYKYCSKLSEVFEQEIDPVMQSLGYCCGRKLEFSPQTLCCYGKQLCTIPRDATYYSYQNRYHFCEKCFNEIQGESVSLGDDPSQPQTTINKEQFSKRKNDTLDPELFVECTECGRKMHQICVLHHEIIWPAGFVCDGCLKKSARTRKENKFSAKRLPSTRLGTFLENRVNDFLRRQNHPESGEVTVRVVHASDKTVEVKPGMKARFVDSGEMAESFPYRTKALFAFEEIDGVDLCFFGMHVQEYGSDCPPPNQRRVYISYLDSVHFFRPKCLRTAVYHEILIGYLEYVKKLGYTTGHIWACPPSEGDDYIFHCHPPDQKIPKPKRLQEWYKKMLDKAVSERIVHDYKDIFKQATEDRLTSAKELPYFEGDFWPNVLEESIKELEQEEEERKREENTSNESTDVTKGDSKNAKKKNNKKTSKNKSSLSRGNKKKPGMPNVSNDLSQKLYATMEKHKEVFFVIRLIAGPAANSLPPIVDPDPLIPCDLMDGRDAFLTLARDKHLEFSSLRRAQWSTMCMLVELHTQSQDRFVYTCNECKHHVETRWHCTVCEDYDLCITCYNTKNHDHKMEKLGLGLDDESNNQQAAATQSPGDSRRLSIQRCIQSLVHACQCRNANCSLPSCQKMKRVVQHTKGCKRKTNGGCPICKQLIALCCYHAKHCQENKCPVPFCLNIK
# Description: (A) Structures of compound 1a (spermidine CoA), and the acetylated side chain of a lysine residue of a polypeptide chain. (B) Inhibition of p300 acetylating activity as a function of 1a concentration. The catalytic domain of recombinant p300 (1284-1660) was assayed under steady state conditions using an N-terminal acetylated histone H4 peptide substrate, Ac-H4(1-19)-NH2. Closed circles represent experimental data points; plain line represents theoretical profile based on data reduction software (Prism) using a one site inhibition model. (C) In vitro assay of p300 activity using a 96-well assay kit (ActivMotif) and an H3 peptide substrate (5-23), according to manufacturer's instructions. Bars represent average of duplicates. […]
# Reactions were set up in duplicate following the protocol supplied by the kit. […] Activity is measured in fluorescence units. […]
# Assays were performed using the fluorescent HAT assay kit (Active Motif, Carlsbad, Calif.), an H3 peptide as substrate (residues 5-23), the p300 catalytic domain as enzyme, and 50 μM inhibitor in duplicate, according to the manufacturer's instructions. […] The reaction product, CoASH, was detected spectrophotometrically by reaction with 5,5′-dithiobis-2-nitrobenzoic acid (DTNB). Assays were carried out at 30° C. for 30 minutes, conditions which had previously been determined in kinetic assays to sufficient to achieve steady state.
SMILES,suppression of 3 day cell viability (H358 lung cancer cells; human),"inhibition at 50 µM (p300 catalytic domain; 50 μM inhibitor, Active Motif 96-well assay, FIG. 9, read-out: inhibition of incorporation of acetyl groups into the H4 peptide substrate relative to untreated wells)",suppression of cancer cell growth and viability (H358 lung cancer cells; spm single agent),"inhibition of p300 HAT activity (p300 catalytic domain; FIG. 24, p300(965-1810), H3 peptide)"
"CC(C)(COP(=O)(O)OP(=O)(O)OC[C@H]1O[C@@H](n2cnc3c(N)ncnc32)[C@H](O)[C@@H]1OP(=O)(O)O)[C@@H](O)C(=O)NCCC(=O)NCCSCC(=O)NCCCNCCCCN [1a, spermidine[N1]-CoA]",60-70%,88%,–,–
CC(=O)NCCSCC(=O)NCCCNCCCCNCCCN [spm-3],–,–,effective as single agents,HAT inhibitors
